{"source": "patent US12611409B2", "about": "“Combination therapy using a chemokine receptor 2 (CCR2) antagonist and a PD-1/PD-L1 inhibitor” (CHEMOCENTRYX, INC., priority 2017, dated 2026)", "key": {"[1]": {"test_system": "M-MDSCs and CD8 T cells in the CT26 tumor microenvironment", "assay": "Quantitation of tumor-infiltrating cells per gram of CT26 tumor (flow cytometry)", "format": "in vivo, Balb/c mice", "description": "CT26 is a Balb/c-derived colon adenocarcinoma that generates tumors when injected subcutaneously into Balb/c mice. Single cells were isolated from established subcutaneous CT26 tumors (28 days after injection) by mincing, digesting the tissue briefly with collagenase-D, and passing the slurry through 100 μm sieves. Cells were stained for flow cytometry and gated on live CD45^+ tumor-infiltrating leukocytes (FIG. 2).\nTumor-infiltrating cytotoxic T cells (Thy1^+/CD8^+) were quantitated by weighing the tumors before dissociation, allowing cells-per-gram of tumor to be calculated.\nM-MDSCs were quantitated by weighing the tumors before dissociation, allowing cells-per-gram of tumor to be calculated.\nThe ratio in control treated mice (veh+iso) was 1:1, meaning one M-MDSC for every CD8 T cell. […] Treatment of Compound 1 alone yielded 10 CD8 T cells for every M-MDSC cell. Treatment with α-PD-1 […]."}, "[2]": {"assay": "Compound 1 plasma levels in the CT26 study", "format": "in vivo, Balb/c mice", "settings": "oral gavage 30 mg/kg daily; day 3 and day 23 of dosing", "description": "Six days after subcutaneous CT26 implantation into the flanks of 9 wk female Balb/c mice (2.5×10^5/mouse), the recipients were randomized based on tumor size and treatment was begun. Mice received anti-PD-1 (RPM1-14 from BioXcell, Inc., catalog number BE0146) by IP injection on days 7, 10, 17 and 21 (200 μg/mouse), and received CCR2 antagonist Compound 1 (30 or 60 mg/kg) or vehicle by oral gavage every 24 hours starting day 7."}}, "data": [{"smiles": "C[C@H]1CN([C@@H]2CC[C@@](C(=O)N3COc4c(cc(C(F)(F)F)cc4C(F)(F)F)C3)(C3CC3)OC2)CC[C@@H]1c1cccc(C(=O)O)c1", "note": "[Compound 1]", "values": [{"measurement": "M-MDSCs in the CT26 tumor microenvironment (cells per gram of tumor)", "setting": "[1]; by day 24", "result": "reduces the population of M-MDSCs"}, {"measurement": "ratio of CD8 T cells to M-MDSCs", "setting": "[1]; calculated from cell counts of FIG. 10 and FIG. 11, control (veh+iso) 1:1", "result": "10 CD8 T cells for every M-MDSC"}, {"measurement": "trough plasma levels", "setting": "[2]", "result": "at or above those required for full receptor coverage"}]}]}
